Earlier results, collected in US20250213469A1, “DOSAGE FORMS OF ACTIVE […] AGAINST VIRAL DISEASES IN DRY POWDER INHALER DEVICE FOR SYMPTOMS CAUSED BY COVID-19 AND OTHER VIRAL LUNG DISEASES” ([…] EGITIM D[…].S., priority 2022, published 2025).

Details: C3H/HeN mice, positron emission tomography; literature study of Bocan et al.

## NC(=O)c1nc(F)c[nH]c1=O [[^18F] Favipiravir]
  tissue retention (biodistribution) of the active substance: retained lowest in the lungs and the most in the kidney, liver and stomach
